The record followed here is patent publication US8771665B2 (Cocrystal Discovery, Inc., priority 2010, dated 2014).

Structures are written as SMILES. pIC50: −log10 of the molar value.

The target of the experiment is T1, HCV1b NS5B polymerase delta 21 (Hepatitis C virus genotype 1b, UniProt P26663).
T1 construct: purified HCV1b NS5B polymerase delta 21
Kind of experiment: RNA-Dependent RNA HCV NS5B (Polymerase) Assay and IC50 Determination. In kind it is biochemical. In short, it runs like this:
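Purified NS5B Δ21 (0.6 μg) with polyA:U16 template, 10 μM UTP plus α-32P UTP in Tris-HCl pH 7.5, 5 mM MgCl2, 0.5% Triton X-100, 60 min at 23°C with varied compound concentrations. Radiolabelled RNA captured on filters, quantified by phosphorimaging; IC50 from triplicate assays.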

T1 sequence (P26663 2420-2989): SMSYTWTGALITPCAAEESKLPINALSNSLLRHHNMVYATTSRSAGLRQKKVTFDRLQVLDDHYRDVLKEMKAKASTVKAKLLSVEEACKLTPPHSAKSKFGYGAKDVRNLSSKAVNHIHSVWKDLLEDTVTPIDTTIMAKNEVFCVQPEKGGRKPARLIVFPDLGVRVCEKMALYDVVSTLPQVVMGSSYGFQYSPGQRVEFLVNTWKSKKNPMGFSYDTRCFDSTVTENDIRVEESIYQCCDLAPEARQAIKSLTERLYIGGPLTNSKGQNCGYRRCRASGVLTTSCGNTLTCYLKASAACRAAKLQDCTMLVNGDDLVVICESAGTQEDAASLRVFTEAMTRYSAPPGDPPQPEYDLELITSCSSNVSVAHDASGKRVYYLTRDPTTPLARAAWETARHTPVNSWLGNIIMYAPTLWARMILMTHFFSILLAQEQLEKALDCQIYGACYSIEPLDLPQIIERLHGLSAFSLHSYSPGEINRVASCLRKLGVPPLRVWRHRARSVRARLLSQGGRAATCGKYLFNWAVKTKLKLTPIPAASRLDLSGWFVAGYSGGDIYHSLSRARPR

Take `CC1CCC(C2=C(c3cc(C#CC(C)(C)C)sc3C(=O)O)CN(C(=O)CO)CC2)CC1` (stereo not drawn) [Example 170, 5-(3,3-Dimethyl-but-1-ynyl)-3-[1-(2-hydroxy-acetyl)-4-(4-methyl-cyclohexyl)-1,2,5,6-tetrahydro-pyridin-3-yl]-thiophene-2-carboxylic acid]: the pIC50 (as a rule, the negative decadic logarithm of the IC50, by convention in mol/L) was 5.00 to 5.52.
Then `CC1CCC(C2=C(c3cc(C#CC(C)(C)C)sc3C(=O)O)CCN(CCO)C2)CC1` (stereo not drawn) [Example 168, 5-(3,3-Dimethyl-but-1-ynyl)-3-[1-(2-hydroxy-ethyl)-5-(4-methyl-cyclohexyl)-1,2,3,6-tetrahydro-pyridin-4-yl]-thiophene-2-carboxylic acid], with > 5.52; and `CCN1CCC(c2cc(-c3ccc(NC(=O)C4CCCO4)cc3)sc2C(=O)O)=C(C2CCC(C)CC2)C1` (stereo not drawn) [Example 058, 3-[1-Ethyl-5-(4-methyl-cyclohexyl)-1,2,3,6-tetrahydro-pyridin-4-yl]-5-{4-[(tetrahydro-furan-2-carbonyl)-amino]-phenyl}-thiophene-2-carboxylic acid], with > 5.52; and `CC1CCC(C2=C(c3cc(C#CC4CCCC4)sc3C(=O)O)CN(C)CC2)CC1` (stereo not drawn) [Example 176, 5-Cyclopentylethynyl-3-[1-methyl-4-(4-methyl-cyclohexyl)-1,2,5,6-tetrahydro-pyridin-3-yl]-thiophene-2-carboxylic acid], with > 5.52.
The result for `CC1CCC(C2=C(c3cc(C#CC4(c5ccccc5)CC4)sc3C(=O)O)CCN(C)C2)CC1` (stereo not drawn) [Example 173, 3-[1-Methyl-5-(4-methyl-cyclohexyl)-1,2,3,6-tetrahydro-pyridin-4-yl]-5-(1-phenyl-cyclopropylethynyl)-thiophene-2-carboxylic acid] reads < 5.00; that for `CCCC(=O)N1CCC(c2cc(-c3ccccc3)sc2C(=O)O)=C(C2CCC(C)CC2)C1` (stereo not drawn) [Example 077, 3-[1-Butyryl-5-(4-methyl-cyclohexyl)-1,2,3,6-tetrahydro-pyridin-4-yl]-5-phenyl-thiophene-2-carboxylic acid], 5.00 to 5.52.
The result for `CC1CCC(C2=C(c3cc(-c4ccccc4)sc3C(=O)O)CCN(Cc3ccncc3)C2)CC1` (stereo not drawn) [Example 090, 3-[5-(4-Methyl-cyclohexyl)-1-pyridin-4-ylmethyl-1,2,3,6-tetrahydro-pyridin-4-yl]-5-phenyl-thiophene-2-carboxylic acid] reads > 5.52; that for `CC1CCC(C2=C(c3cc(C#CC4CC4)sc3C(=O)O)CCN(Cc3ccccn3)C2)CC1` (stereo not drawn) [Example 134, 5-Cyclopropylethynyl-3-[5-(4-methyl-cyclohexyl)-1-pyridin-2-ylmethyl-1,2,3,6-tetrahydro-pyridin-4-yl]-thiophene-2-carboxylic acid], > 5.52; that for `CCN1CCC(c2cc(C#CC(C)(C)N)sc2C(=O)O)=C(C2CCC(C)CC2)C1` (stereo not drawn) [Example 021, 5-(3-Amino-3-methyl-but-1-ynyl)-3-[1-ethyl-5-(4-methyl-cyclohexyl)-1,2,3,6-tetrahydro-pyridin-4-yl]-thiophene-2-carboxylic acid], > 5.52.
Take `CC1CCC(C2=C(c3cc(-c4ccc(-c5cc6ncccn6n5)cc4)sc3C(=O)O)CCN(Cc3ccccn3)C2)CC1` (stereo not drawn) [Example 141, 3-[5-(4-Methyl-cyclohexyl)-1-pyridin-2-ylmethyl-1,2,3,6-tetrahydro-pyridin-4-yl]-5-(4-pyrazolo[1,5-a]pyrimidin-2-yl-phenyl)-thiophene-2-carboxylic acid]: the pIC50 is 5.00 to 5.52.
With `Cc1oc(=O)oc1COC(=O)c1sc(-c2ccc(NC(=O)c3cscn3)cc2)cc1C1=C(C2CCC(C)CC2)CN(C)CC1` (stereo not drawn) [Example 108, 3-[1-Methyl-5-(4-methyl-cyclohexyl)-1,2,3,6-tetrahydro-pyridin-4-yl]-5-{4-[(thiazole-4-carbonyl)-amino]-phenyl}-thiophene-2-carboxylic acid 5-methyl-2-oxo-[1,3]-dioxol-4-ylmethyl ester], the negative logarithm of the IC50 (pIC50) was > 5.52.
The result for `CC1CCC(C2=C(c3cc(-c4ccccc4)sc3C(=O)O)CCN(Cc3nc4nc(C(C)C)cc(C(C)C)n4n3)C2)CC1` (stereo not drawn) [Example 151, 3-[1-(5,7-Diisopropyl-[1,2,4]triazolo[1,5-a]pyrimidin-2-ylmethyl)-5-(4-methyl-cyclohexyl)-1,2,3,6-tetrahydro-pyridin-4-yl]-5-phenyl-thiophene-2-carboxylic acid] reads 5.00 to 5.52; that for `CCN1CCC(c2cc(-c3ccc(NC(=O)c4nccs4)cc3)sc2C(=O)O)=C(C2CCC(C)CC2)C1` (stereo not drawn) [Example 066, 3-[1-Ethyl-5-(4-methyl-cyclohexyl)-1,2,3,6-tetrahydro-pyridin-4-yl]-5-{4-[(thiazole-2-carbonyl)-amino]-phenyl}-thiophene-2-carboxylic acid], > 5.52.
Then `CCN1CCC(c2cc(-c3cccc(NC(C)=O)c3)sc2C(=O)O)=C(C2CCC(C)CC2)C1` (stereo not drawn) [Example 024, 5-(3-Acetylamino-phenyl)-3-[1-ethyl-5-(4-methyl-cyclohexyl)-1,2,3,6-tetrahydro-pyridin-4-yl]-thiophene-2-carboxylic acid], with < 5.00; and `CCN1CCC(c2cc(-c3ccc(NC(C)=O)cc3)sc2C(=O)O)=C(C2CCC(C)CC2)C1` (stereo not drawn) [Example 018, 5-(4-Acetylamino-phenyl)-3-[1-ethyl-5-(4-methyl-cyclohexyl)-1,2,3,6-tetrahydro-pyridin-4-yl]-thiophene-2-carboxylic acid], with 5.00 to 5.52.
Take `Cc1cc(C)n2nc(CCCN3CCC(c4cc(-c5ccccc5)sc4C(=O)O)=C(C4CCC(C)CC4)C3)nc2n1` (stereo not drawn) [Example 091, 3-[1-[3-(5,7-Dimethyl-[1,2,4]triazolo[1,5-a]pyrimidin-2-yl)-propyl]-5-(4-methyl-cyclohexyl)-1,2,3,6-tetrahydro-pyridin-4-yl]-5-phenyl-thiophene-2-carboxylic acid]: the negative-log IC50 (pIC50) was > 5.52.
Then `CC1CCC(C2=C(c3cc(-c4cc(F)c(NC(=O)c5cscn5)cc4F)sc3C(=O)O)CCN(C)C2)CC1` (stereo not drawn) [Example 160, 5-{2,5-Difluoro-4-[(thiazole-4-carbonyl)-amino]-phenyl}-3-[1-methyl-5-(4-methyl-cyclohexyl)-1,2,3,6-tetrahydro-pyridin-4-yl]-thiophene-2-carboxylic acid], with > 5.52.
The result for `CCN1CCC(c2cc(-c3ccc(C(=O)O)cc3)sc2C(=O)O)=C(C2CCC(C)CC2)C1` (stereo not drawn) [Example 035, 5-(4-Carboxy-phenyl)-3-[1-ethyl-5-(4-methyl-cyclohexyl)-1,2,3,6-tetrahydro-pyridin-4-yl]-thiophene-2-carboxylic acid] reads > 5.52; that for `CC1CCC(C2=C(c3cc(-c4ccccc4)sc3C(=O)O)CCN(C(=O)Cc3cccc4ccccc34)C2)CC1` (stereo not drawn) [Example 097, 3-[5-(4-Methyl-cyclohexyl)-1-(2-naphthalen-1-yl-acetyl)-1,2,3,6-tetrahydro-pyridin-4-yl]-5-phenyl-thiophene-2-carboxylic acid], < 5.00.
Then `CC1CCC(C2=C(c3cc(-c4ccccc4)sc3C(=O)O)CCN(C(=O)Cc3ccncc3)C2)CC1` (stereo not drawn) [Example 093, 3-[5-(4-Methyl-cyclohexyl)-1-(2-pyridin-4-yl-acetyl)-1,2,3,6-tetrahydro-pyridin-4-yl]-5-phenyl-thiophene-2-carboxylic acid], with < 5.00.
With `CCNC(=O)N1CCC(c2cc(-c3ccccc3)sc2C(=O)O)=C(C2CCC(C)CC2)C1` (stereo not drawn) [Example 085, 3-[1-Ethylcarbamoyl-5-(4-methyl-cyclohexyl)-1,2,3,6-tetrahydro-pyridin-4-yl]-5-phenyl-thiophene-2-carboxylic acid], the negative-log IC50 (pIC50) is 5.00 to 5.52.
For `CC1CCC(C2=C(c3cc(-c4cc(F)c(NC(=O)c5cscn5)c(F)c4)sc3C(=O)O)CCN(C)C2)CC1` (stereo not drawn) [Example 166, 5-{3,5-Difluoro-4-[(thiazole-4-carbonyl)-amino]-phenyl}-3-[1-methyl-5-(4-methyl-cyclohexyl)-1,2,3,6-tetrahydro-pyridin-4-yl]-thiophene-2-carboxylic acid], the pIC50 was > 5.52.
The result for `CCOC(=O)OCOC(=O)c1sc(-c2ccc(NC(=O)c3cscn3)cc2)cc1C1=C(C2CCC(C)CC2)CN(C)CC1` (stereo not drawn) [Example 107, 3-[1-Methyl-5-(4-methyl-cyclohexyl)-1,2,3,6-tetrahydro-pyridin-4-yl]-5-{4-[(thiazole-4-carbonyl)-amino]-phenyl}-thiophene-2-carboxylic acid ethoxycarbonyloxymethyl ester] reads > 5.52.
The result for `CCN1CCC(c2cc(C#CC3CCCCC3)sc2C(=O)O)=C(C2CCC(C)CC2)C1` (stereo not drawn) [Example 016, 5-Cyclohexylethynyl-3-[1-ethyl-5-(4-methyl-cyclohexyl)-1,2,3,6-tetrahydro-pyridin-4-yl]-thiophene-2-carboxylic acid] reads < 5.00; that for `CC1CCC(C2=C(c3cc(-c4ccc(NC(=O)c5cscn5)c(F)c4)sc3C(=O)O)CCN(C)C2)CC1` (stereo not drawn) [Example 059, 5-{3-Fluoro-4-[(thiazole-4-carbonyl)-amino]-phenyl}-3-[1-methyl-5-(4-methyl-cyclohexyl)-1,2,3,6-tetrahydro-pyridin-4-yl]-thiophene-2-carboxylic acid], > 5.52.
Then `CC(=O)OCOC(=O)c1sc(-c2ccc(NC(=O)c3cscn3)cc2)cc1C1=C(C2CCC(C)CC2)CN(C)CC1` (stereo not drawn) [Example 102, 3-[1-Methyl-5-(4-methyl-cyclohexyl)-1,2,3,6-tetrahydro-pyridin-4-yl]-5-{4-[(thiazole-4-carbonyl)-amino]-phenyl}-thiophene-2-carboxylic acid acetoxymethyl ester], with < 5.00; and `CCOC(=O)N1CCC(c2cc(-c3ccccc3)sc2C(=O)O)=C(C2CCC(C)CC2)C1` (stereo not drawn) [Example 038, 4-(2-Carboxy-5-phenyl-thiophen-3-yl)-5-(4-methyl-cyclohexyl)-3,6-dihydro-2H-pyridine-1-carboxylic acid ethyl ester], with < 5.00.
